According to US6964975B2, “Isoxazole and thiazole compounds and use thereof as medicine” (Kirin Beer Kabushiki Kaisha, priority 2000, dated 2005):

Columns and labels:
[1] = target: T1, human EDG-2 (Homo sapiens, UniProt Q92633); assay: Inhibitory activity on LPA-induced elevation of intracellular Ca2+ level; format: cell-based; details: 50% inhibition of elevation of intracellular Ca2+ level by LPA, human EDG-2/HepG2 cells, fura-2
T1 construct: cDNA of the cloned human EDG-2 was introduced into pEFneo, which is an animal expression vector; expressed in transfected cells; host or cells: HepG2
In short: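 Stably transfected HepG2 cells loaded with fura-2/AM (45 min, room temperature) in 0.1% BSA HEPES buffer. Test compound added before LPA, and the LPA-evoked intracellular Ca2+ rise measured fluorometrically. IC50 for inhibition derived.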

[2] = tested on: Human EDG-2/HepG2 cells; assay: Inhibitory activity on LPA-accelerated [3H] thymidine incorporation (cell proliferation); format: cell-based; details: 50% inhibition of LPA-induced increase of [3H] thymidine incorporation
From the text: The human EDG-2 expression plasmid was introduced into HepG2 cells by electroporation. After the introduction, culturing was continued while exchanging selective media every 3 to 4 days, thereby obtaining an expressed colony. Regarding these cells, Ca-influx and cell-proliferation by LPA, level of [^3H] LPA binding and the like were inspected to select a cell line which highly expresses human EDG-2 (human EDG-2/HepG2).
Human EDG-2/HepG2 cells suspended in 10% bovine serum-containing DMEM (Dulbecco's modified eagle medium) were plated on a 96-well plate and, on the next day, the medium was exchanged with serum-free DMEM. 24 hours later, the medium was exchanged with DMEM containing LPA or DMEM containing no LPA, cells were cultured for further 16 hours, and [^3H] thymidine was then added. After culturing for 8 hours subsequent to the addition of [^3H] thymidine, cells were washed with PBS (phosphate-buffered saline), and the amount of [^3H] thymidine incorporated into the cells were assayed by Betaplate filter counter system (Amersham Pharmacia Biotech). The difference between the amount of [^3H] thymidine incorporated in the LPA-added well and the amount of [^3H] thymidine incorporated in the well containing no LPA represents the amount of [^3H] thymidine incorporation accelerated by LPA. […] The test compounds were added immediately before the LPA addition.

T1 sequence (Q92633 whole entry): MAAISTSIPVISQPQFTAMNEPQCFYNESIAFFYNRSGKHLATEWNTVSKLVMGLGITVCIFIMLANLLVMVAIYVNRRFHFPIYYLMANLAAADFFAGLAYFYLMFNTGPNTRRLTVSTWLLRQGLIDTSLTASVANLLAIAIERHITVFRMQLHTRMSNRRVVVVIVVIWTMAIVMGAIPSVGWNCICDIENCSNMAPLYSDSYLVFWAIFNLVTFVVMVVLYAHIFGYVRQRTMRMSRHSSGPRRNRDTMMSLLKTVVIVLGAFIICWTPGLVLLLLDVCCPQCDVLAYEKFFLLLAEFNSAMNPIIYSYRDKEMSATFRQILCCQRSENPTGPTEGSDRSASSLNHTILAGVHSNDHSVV

| Structure (SMILES) | IC50 [1] | IC50 [2] |
| --- | --- | --- |
| Cc1noc(-c2ccc(CSCCO)cc2)c1NC(=O)OC(C)c1ccccc1Cl (centres unmarked) [Compound 120, 1-(2-Chlorophenyl)ethyl N-[5-(4-{[(2-hydroxyethyl)sulfanyl]methyl}phenyl)-3-methyl-4-isoxazolyl]carbamate] | 3 to 10 µM | 0.1 to 0.3 µM |
| COC(=O)CS(=O)(=O)Cc1ccc(-c2onc(C)c2NC(=O)OC(C)c2ccccc2Cl)cc1 (centres unmarked) [Compound 133] | 10 µM | 0.1 to 0.3 µM |
| CCOCc1cccc(-c2onc(C)c2NC(=O)OC(C)c2ccccc2Cl)c1 (centres unmarked) [Compound 129, 1-(2-Chlorophenyl)ethyl N-{5-[3-(ethoxymethyl)phenyl]-3-methyl-4-isoxazolyl}carbamate] | 3 to 10 µM | 0.3 to 1 µM |
| CCSCc1cccc(-c2onc(C)c2NC(=O)OC(C)c2ccccc2Cl)c1 (centres unmarked) [Compound 132, 1-(2-Chlorophenyl)ethyl N-(5-{3-[(ethylsulfanyl)methyl]phenyl}-3-methyl-4-isoxazolyl)carbamate] | 3 µM | 0.3 to 1 µM |
| COC(=O)CSCc1cccc(-c2onc(C)c2NC(=O)OC(C)c2ccccc2Cl)c1 (centres unmarked) [Compound 130, Methyl 2-({3-[4-({[1-(2-chlorophenyl)ethoxy]carbonyl}amino)-3-methyl-5-isoxazolyl]-benzyl}sulfanyl)acetate] | 3 to 10 µM | 0.3 to 1 µM |
| CNC(=O)CSCc1ccc(-c2onc(C)c2NC(=O)OC(C)c2ccccc2Cl)cc1 (centres unmarked) [Compound 138] | 3 to 10 µM | 0.1 to 0.3 µM |
| Cc1noc(-c2ccc(CNCCc3ccccn3)cc2)c1NC(=O)OC(C)c1ccccc1Cl (centres unmarked) [Compound 103] | 10 µM | 0.3 µM |
| CCSCc1ccc(-c2onc(C)c2NC(=O)OC(C)c2ccccc2Cl)cc1 (centres unmarked) [Compound 108, 1-(2-Chlorophenyl)ethyl N-(5-{4-[(ethylsulfanyl)methyl]phenyl}-3-methyl-4-isoxazolyl)carbamate] | 3 to 10 µM | 0.1 to 0.3 µM |
| Cc1noc(-c2ccc(CSCCC(=O)O)cc2)c1NC(=O)OC(C)c1ccccc1Cl (centres unmarked) [Compound 126, 3-({4-[4-({[1-(2-Chlorophenyl)ethoxy]carbonyl}amino)-3-methyl-5-isoxazolyl]benzyl}-sulfanyl)propanoic acid] | 3 to 10 µM | 0.01 to 0.03 µM |
| Cc1noc(-c2ccncc2)c1NC(=O)OC(C)c1ccccc1Cl (centres unmarked) [Compound 62, 1-(2-Chlorophenyl)ethyl N-[3-methyl-5-(4-pyridyl)-4-isoxazolyl]carbamate] | 3 µM | 3 µM |
| CCOC(=O)CSCc1cccc(-c2onc(C)c2NC(=O)OC(C)c2ccccc2Cl)c1 (centres unmarked) [Compound 140, Ethyl 2-({3-[4-({[1-(2-chlorophenyl)ethoxy]carbonyl}amino)-3-methyl-5-isoxazolyl]benzyl}-sulfanyl)acetate] | 3 to 10 µM | 0.3 to 1 µM |
| Cc1noc(-c2ccc(CSCCc3ccccc3)cc2)c1NC(=O)OC(C)c1ccccc1Cl (centres unmarked) [Compound 124] | 10 to 30 µM | 0.1 to 0.3 µM |
| Cc1noc(-c2ccc(CSc3nc[nH]n3)cc2)c1NC(=O)OC(C)c1ccccc1Cl (centres unmarked) [Compound 136, 1-(2-Chlorophenyl)ethyl N-(3-methyl-5-{4-[(1H-1,2,4-triazol-3-ylsulfanyl)methyl]-phenyl}-4-isoxazolyl)carbamate] | 3 to 10 µM | 0.1 to 0.3 µM |
| CCCCCNCc1ccc(-c2onc(C)c2NC(=O)OC(C)c2ccccc2Cl)cc1 (centres unmarked) [Compound 109, 1-(2-Chlorophenyl)ethyl N-(3-methyl-5-{4-[(pentylamino)methyl]phenyl}-4-isoxazolyl)carbamate] | 10 to 30 µM | 1 to 3 µM |
| Cc1ccsc1-c1onc(C)c1NC(=O)OC(C)c1ccccc1Cl (centres unmarked) [Compound 67, 1-(2-Chlorophenyl)ethyl N-[3-methyl-5-(3-methyl-2-thienyl)-4-isoxazolyl]carbamate] | 3 µM | 1 µM |
| Cc1noc(-c2cccc(CSCCc3ccccc3)c2)c1NC(=O)OC(C)c1ccccc1Cl (centres unmarked) [Compound 142, 1-(2-Chlorophenyl)ethyl N-(3-methyl-5-{3-[(phenethylsulfanyl)methyl]phenyl}-4-isoxazolyl)-carbamate] | 3 to 10 µM | 0.3 µM |
| Cc1noc(-c2ccc(CSCC(=O)O)cc2)c1NC(=O)OC(C)c1ccccc1Cl (centres unmarked) [Compound 121, 2-({4-[4-({[1-(2-Chlorophenyl)ethoxy]carbonyl}amino)-3-methyl-5-isoxazolyl]benzyl}-sulfanyl)acetic acid] | 3 to 10 µM | 0.03 to 0.1 µM |
| Cc1noc(-c2ccc(CNCCF)cc2)c1NC(=O)OC(C)c1ccccc1Cl (centres unmarked) [Compound 112, 1-(2-Chlorophenyl)ethyl N-[5-(4-{[(2-fluoroethyl)amino]methyl}phenyl)-3-methyl-4-isoxazolyl]carbamate] | 10 to 30 µM | 0.3 to 1 µM |
| COC(=O)C[S+]([O-])Cc1ccc(-c2onc(C)c2NC(=O)OC(C)c2ccccc2Cl)cc1 (centres unmarked) [Compound 134, Methyl 2-({4-[4-({[1-(2-chlorophenyl)ethoxy]carbonyl}amino)-3-methyl-5-isoxazolyl]-benzyl}sulfinyl)acetate] | 3 to 10 µM | 0.1 to 0.3 µM |
| Cc1noc(-c2ccc(CNCc3ccco3)cc2)c1NC(=O)OC(C)c1ccccc1Cl (centres unmarked) [Compound 106, 1-(2-Chlorophenyl)ethyl N-[5-(4-{[(2-furylmethyl)amino]methyl}phenyl)-3-methyl-4-isoxazolyl]carbamate] | 3 to 10 µM | 1 to 3 µM |

The remaining lines, values ahead:

| IC50 [1] | IC50 [2] | Structure (SMILES) |
| --- | --- | --- |
| 3 to 10 µM | 0.1 to 0.3 µM | CCc1noc(-c2ccc(CSCC(=O)O)cc2)c1NC(=O)OC(C)c1ccccc1Cl (centres unmarked) [Compound 154, 2-({4-[4-({[1-(2-Chlorophenyl)ethoxy]carbonyl}amino)-3-ethyl-5-isoxazolyl]benzyl}-sulfanyl)acetic acid] |
| 3 to 10 µM | 0.1 to 0.3 µM | CCc1noc(-c2ccc(CSCCC(=O)OC)cc2)c1NC(=O)OC(C)c1ccccc1F (centres unmarked) [Compound 165, Methyl 3-({4-[3-ethyl-4-({[1-(2-fluorophenyl)ethoxy]carbonyl}amino)-5-isoxazolyl]-benzyl}sulfanyl)propanoate] |
| 10 µM | 0.3 to 1 µM | COC(=O)CCSCc1ccc(-c2onc(C)c2NC(=O)OC(C)c2ccccc2F)cc1 (centres unmarked) [Compound 156, Methyl 3-({4-[4-({[1-(2-fluorophenyl)ethoxy]carbonyl}amino)-3-methyl-5-isoxazolyl]-benzyl}-sulfanyl)propanoate] |
| 3 to 10 µM | 0.03 to 0.1 µM | CCc1noc(-c2ccc(CSCCC(=O)O)cc2)c1NC(=O)OC(C)c1ccccc1F (centres unmarked) [Compound 167, 3-({4-[3-Ethyl-4-({[1-(2-fluorophenyl)ethoxy]carbonyl}amino)-5-isoxazolyl]benzyl}-sulfanyl)propanoic acid] |
| 3 to 10 µM | 0.03 to 0.1 µM | Cc1noc(-c2ccc(CSCCC(=O)O)cc2)c1NC(=O)OC(c1ccccc1)C(F)(F)F (centres unmarked) [Compound 163, 3-{[4-(3-Methyl-4-{[(2,2,2-trifluoro-1-phenylethoxy)carbonyl]amino}-5-isoxazolyl)benzyl]-sulfanyl}propanoic acid] |
| 3 to 10 µM | 0.03 to 0.3 µM | CCc1noc(-c2ccc(CSCCC(=O)OC)cc2)c1NC(=O)OC(C)c1ccccc1Cl (centres unmarked) [Compound 146] |
| 10 µM | 0.1 µM | CCc1noc(-c2ccc(CSCCC(=O)OC)cc2)c1NC(=O)OC(c1ccccc1)C(F)(F)F (centres unmarked) [Compound 166, Methyl 3-{[4-(3-ethyl-4-{[(2,2,2-trifluoro-1-phenylethoxy)carbonyl]amino}-5-isoxazolyl)-benzyl]sulfanyl}propanoate] |
| 3 to 10 µM | 0.3 µM | CCc1noc(-c2ccc(CSCC(=O)OC)cc2)c1NC(=O)OC(C)c1ccccc1Cl (centres unmarked) [Compound 153, Methyl 2-({4-[4-({[1-(2-chlorophenyl)ethoxy]carbonyl}amino)-3-ethyl-5-isoxazolyl]benzyl}-sulfanyl)acetate] |
| 3 to 10 µM | 0.1 µM | Cc1noc(-c2ccc(CSCCS(=O)(=O)O)cc2)c1NC(=O)OC(C)c1ccccc1Cl (centres unmarked) [Compound 151, 2-({4-[4-({[1-(2-Chlorophenyl)ethoxy]carbonyl}amino)-3-methyl-5-isoxazolyl]benzyl}-sulfanyl)-1-ethanesulfonic acid] |
| 10 to 30 µM | 0.03 µM | Cc1noc(-c2ccc(CSCCNC(=O)c3ccc[nH]3)cc2)c1NC(=O)OC(C)c1ccccc1Cl (centres unmarked) [Compound 149, 1-(2-Chlorophenyl)ethyl N-(3-methyl-5-{4-[({2-[(1H-2-pyrrolylcarbonyl)amino]ethyl}-sulfanyl)methyl]phenyl}-4-isoxazolyl)carbamate] |
| 3 to 10 µM | 0.3 µM | Cc1noc(-c2ccc(CSCCCS(=O)(=O)O)cc2)c1NC(=O)OC(C)c1ccccc1Cl (centres unmarked) [Compound 152, 3-({4-[4-({[1-(2-Chlorophenyl)ethoxy]carbonyl}amino)-3-methyl-5-isoxazolyl]benzyl}-sulfanyl)-1-propanesulfonic acid] |
